From ChEMBL document CHEMBL1649508, “Emergence of quinolone-resistant Bordetella pertussis in Japan” (2009)
Converted amounts (≈) assume the structure as drawn.

Key:
Type in all cases: functional
Bordetella pertussis [1] = test: Antibacterial activity against quinolone-susceptible Bordetella pertussis CCUG 30837 by Etest method
Bordetella pertussis [2] = test: Antibacterial activity against quinolone-susceptible Bordetella pertussis BP101 by Etest method
Bordetella pertussis [3] = test: Antibacterial activity against quinolone-susceptible Bordetella pertussis BP106 by Etest method
Bordetella pertussis [4] = test: Antibacterial activity against quinolone-susceptible Bordetella pertussis BP109 by Etest method
Bordetella pertussis [5] = test: Antibacterial activity against quinolone-susceptible Bordetella pertussis BP111 by Etest method
Bordetella pertussis [6] = test: Antibacterial activity against quinolone-susceptible Bordetella pertussis BP112 by Etest method
Bordetella pertussis [7] = test: Antibacterial activity against quinolone-susceptible Bordetella pertussis BP113 by Etest method
Bordetella pertussis [8] = test: Antibacterial activity against quinolone-susceptible Bordetella pertussis BP115 by Etest method
Bordetella pertussis [9] = test: Antibacterial activity against quinolone-susceptible Bordetella pertussis BP128 by Etest method
Bordetella pertussis [10] = test: Antibacterial activity against […] Bordetella pertussis BP58 by Etest method
Bordetella pertussis [11] = test: Antibacterial activity against […] Bordetella pertussis BP99 by Etest method
Bordetella pertussis [12] = test: Antibacterial activity against […] Bordetella pertussis BP117 by Etest method
Bordetella pertussis [13] = test: Antibacterial activity against […] Bordetella pertussis BP118 by Etest method
Bordetella pertussis [14] = test: Antibacterial activity against […] Bordetella pertussis BP121 by Etest method
Bordetella pertussis [15] = test: Antibacterial activity against […] Bordetella pertussis BP122 by Etest method
Bordetella pertussis [16] = test: Antibacterial activity against quinolone-susceptible Bordetella pertussis CCUG 30837 by Etest method in presence of efflux pump inhibitor phenyl-arginine-beta-naphthylamide
Bordetella pertussis [17] = test: Antibacterial activity against quinolone-susceptible Bordetella pertussis BP113 by Etest method in presence of efflux pump inhibitor phenyl-arginine-beta-naphthylamide
Bordetella pertussis [18] = test: Antibacterial activity against […] Bordetella pertussis BP58 by Etest method in presence of efflux pump inhibitor phenyl-arginine-beta-naphthylamide
Bordetella pertussis [19] = test: Antibacterial activity against […] Bordetella pertussis BP99 by Etest method in presence of efflux pump inhibitor phenyl-arginine-beta-naphthylamide
Bordetella pertussis [20] = test: Antibacterial activity against […] Bordetella pertussis BP117 by Etest method in presence of efflux pump inhibitor phenyl-arginine-beta-naphthylamide
Bordetella pertussis [21] = test: Antibacterial activity against […] Bordetella pertussis BP118 by Etest method in presence of efflux pump inhibitor phenyl-arginine-beta-naphthylamide
Bordetella pertussis [22] = test: Antibacterial activity against […] Bordetella pertussis BP121 by Etest method in presence of efflux pump inhibitor phenyl-arginine-beta-naphthylamide
Bordetella pertussis [23] = test: Antibacterial activity against […] Bordetella pertussis BP122 by Etest method in presence of efflux pump inhibitor phenyl-arginine-beta-naphthylamide

| Compound | MIC (Bordetella pertussis [1]) | MIC (Bordetella pertussis [2]) | MIC (Bordetella pertussis [3]) | MIC (Bordetella pertussis [4]) | MIC (Bordetella pertussis [5]) | MIC (Bordetella pertussis [6]) | MIC (Bordetella pertussis [7]) | MIC (Bordetella pertussis [8]) | MIC (Bordetella pertussis [9]) | MIC (Bordetella pertussis [10]) | MIC (Bordetella pertussis [11]) | MIC (Bordetella pertussis [12]) | MIC (Bordetella pertussis [13]) | MIC (Bordetella pertussis [14]) | MIC (Bordetella pertussis [15]) | also measured |
| --- | --- | --- | --- | --- | --- | --- | --- | --- | --- | --- | --- | --- | --- | --- | --- | --- |
| CCn1cc(C(=O)O)c(=O)c2ccc(C)nc21 [NALIDIXIC ACID] | 2 µg/mL (≈ 8.61 µM) | 2 µg/mL (≈ 8.61 µM) | 1 µg/mL (≈ 4.31 µM) | 2 µg/mL (≈ 8.61 µM) | 2 µg/mL (≈ 8.61 µM) | 1 µg/mL (≈ 4.31 µM) | 2 µg/mL (≈ 8.61 µM) | 1 µg/mL (≈ 4.31 µM) | 1 µg/mL (≈ 4.31 µM) | > 256 µg/mL | > 256 µg/mL | > 256 µg/mL | > 256 µg/mL | > 256 µg/mL | > 256 µg/mL | MIC (Bordetella pertussis [16]): 0.25 µg/mL; MIC (Bordetella pertussis [17]): 0.25 µg/mL; MIC (Bordetella pertussis [18]): 64 µg/mL; MIC (Bordetella pertussis [19]): 32 µg/mL; MIC (Bordetella pertussis [20]): 64 µg/mL; MIC (Bordetella pertussis [21]): 64 µg/mL; MIC (Bordetella pertussis [22]): 32 µg/mL; MIC (Bordetella pertussis [23]): 32 µg/mL |
| CCn1cc(C(=O)O)c(=O)c2cc(F)c(N3CCNCC3)cc21 [NORFLOXACIN] | 0.125 µg/mL (≈ 0.391 µM) | 0.032 µg/mL (≈ 0.1 µM) | 0.064 µg/mL (≈ 0.2 µM) | 0.064 µg/mL (≈ 0.2 µM) | 0.064 µg/mL (≈ 0.2 µM) | 0.064 µg/mL (≈ 0.2 µM) | 0.064 µg/mL (≈ 0.2 µM) | 0.064 µg/mL (≈ 0.2 µM) | 0.064 µg/mL (≈ 0.2 µM) | 1 µg/mL (≈ 3.13 µM) | 1 µg/mL (≈ 3.13 µM) | 0.5 µg/mL (≈ 1.57 µM) | 0.5 µg/mL (≈ 1.57 µM) | 1 µg/mL (≈ 3.13 µM) | 1 µg/mL (≈ 3.13 µM) | – |
| C[C@@H]1CN(c2c(F)c(N)c3c(=O)c(C(=O)O)cn(C4CC4)c3c2F)C[C@H](C)N1 [SPARFLOXACIN] | 0.016 µg/mL (≈ 0.0408 µM) | 0.008 µg/mL (≈ 0.0204 µM) | 0.004 µg/mL (≈ 0.0102 µM) | 0.004 µg/mL (≈ 0.0102 µM) | 0.008 µg/mL (≈ 0.0204 µM) | 0.004 µg/mL (≈ 0.0102 µM) | 0.004 µg/mL (≈ 0.0102 µM) | 0.004 µg/mL (≈ 0.0102 µM) | 0.008 µg/mL (≈ 0.0204 µM) | 0.125 µg/mL (≈ 0.319 µM) | 0.032 µg/mL (≈ 0.0815 µM) | 0.064 µg/mL (≈ 0.163 µM) | 0.064 µg/mL (≈ 0.163 µM) | 0.064 µg/mL (≈ 0.163 µM) | 0.064 µg/mL (≈ 0.163 µM) | – |

Continued by falling MIC (Bordetella pertussis [1]), values first:

| MIC (Bordetella pertussis [1]) | MIC (Bordetella pertussis [2]) | MIC (Bordetella pertussis [3]) | MIC (Bordetella pertussis [4]) | MIC (Bordetella pertussis [5]) | MIC (Bordetella pertussis [6]) | MIC (Bordetella pertussis [7]) | MIC (Bordetella pertussis [8]) | MIC (Bordetella pertussis [9]) | MIC (Bordetella pertussis [10]) | MIC (Bordetella pertussis [11]) | MIC (Bordetella pertussis [12]) | MIC (Bordetella pertussis [13]) | MIC (Bordetella pertussis [14]) | MIC (Bordetella pertussis [15]) | Compound | also measured |
| --- | --- | --- | --- | --- | --- | --- | --- | --- | --- | --- | --- | --- | --- | --- | --- | --- |
| 0.5 µg/mL (≈ 1.55 µM) | 0.25 µg/mL (≈ 0.774 µM) | 0.25 µg/mL (≈ 0.774 µM) | 0.125 µg/mL (≈ 0.387 µM) | 0.25 µg/mL (≈ 0.774 µM) | 0.25 µg/mL (≈ 0.774 µM) | 0.5 µg/mL (≈ 1.55 µM) | 0.5 µg/mL (≈ 1.55 µM) | 0.25 µg/mL (≈ 0.774 µM) | 0.5 µg/mL (≈ 1.55 µM) | 0.25 µg/mL (≈ 0.774 µM) | 0.25 µg/mL (≈ 0.774 µM) | 0.5 µg/mL (≈ 1.55 µM) | 0.25 µg/mL (≈ 0.774 µM) | 0.25 µg/mL (≈ 0.774 µM) | O=C(N[C@H](CO)[C@H](O)c1ccc([N+](=O)[O-])cc1)C(Cl)Cl [CHLORAMPHENICOL] | – |
| 0.032 µg/mL (≈ 0.0966 µM) | 0.016 µg/mL (≈ 0.0483 µM) | 0.008 µg/mL (≈ 0.0241 µM) | 0.008 µg/mL (≈ 0.0241 µM) | 0.016 µg/mL (≈ 0.0483 µM) | 0.008 µg/mL (≈ 0.0241 µM) | 0.008 µg/mL (≈ 0.0241 µM) | 0.016 µg/mL (≈ 0.0483 µM) | 0.016 µg/mL (≈ 0.0483 µM) | 0.125 µg/mL (≈ 0.377 µM) | 0.125 µg/mL (≈ 0.377 µM) | 0.125 µg/mL (≈ 0.377 µM) | 0.125 µg/mL (≈ 0.377 µM) | 0.125 µg/mL (≈ 0.377 µM) | 0.125 µg/mL (≈ 0.377 µM) | O=C(O)c1cn(C2CC2)c2cc(N3CCNCC3)c(F)cc2c1=O [CIPROFLOXACIN] | – |
| 0.016 µg/mL | 0.016 µg/mL | 0.008 µg/mL | 0.004 µg/mL | 0.008 µg/mL | 0.008 µg/mL | 0.008 µg/mL | 0.008 µg/mL | 0.016 µg/mL | 0.064 µg/mL | 0.064 µg/mL | 0.064 µg/mL | 0.064 µg/mL | 0.064 µg/mL | 0.064 µg/mL | C[C@H]1COc2c(N3CCN(C)CC3)c(F)cc3c(=O)c(C(=O)O)cn1c23.C[C@H]1COc2c(N3CCN(C)CC3)c(F)cc3c(=O)c(C(=O)O)cn1c23.O [LEVOFLOXACIN] | – |
| 0.008 µg/mL (≈ 0.0213 µM) | 0.008 µg/mL (≈ 0.0213 µM) | 0.004 µg/mL (≈ 0.0107 µM) | 0.004 µg/mL (≈ 0.0107 µM) | 0.008 µg/mL (≈ 0.0213 µM) | 0.004 µg/mL (≈ 0.0107 µM) | 0.004 µg/mL (≈ 0.0107 µM) | 0.008 µg/mL (≈ 0.0213 µM) | 0.008 µg/mL (≈ 0.0213 µM) | 0.032 µg/mL (≈ 0.0852 µM) | 0.032 µg/mL (≈ 0.0852 µM) | 0.032 µg/mL (≈ 0.0852 µM) | 0.032 µg/mL (≈ 0.0852 µM) | 0.032 µg/mL (≈ 0.0852 µM) | 0.032 µg/mL (≈ 0.0852 µM) | COc1c(N2CCNC(C)C2)c(F)cc2c(=O)c(C(=O)O)cn(C3CC3)c12 (stereo not drawn) [GATIFLOXACIN] | – |
